Experimental data reported in article PMC9297976 (Journal of Applied Toxicology, 2021).

Key:
[1] = target: T1, medaka Esr1 (mEsr1) (Oryzias latipes, UniProt P50241); assay: cell-based; parameters: species or system Japanese medaka (Oryzias latipes)
T1 sequence (P50241 1-620): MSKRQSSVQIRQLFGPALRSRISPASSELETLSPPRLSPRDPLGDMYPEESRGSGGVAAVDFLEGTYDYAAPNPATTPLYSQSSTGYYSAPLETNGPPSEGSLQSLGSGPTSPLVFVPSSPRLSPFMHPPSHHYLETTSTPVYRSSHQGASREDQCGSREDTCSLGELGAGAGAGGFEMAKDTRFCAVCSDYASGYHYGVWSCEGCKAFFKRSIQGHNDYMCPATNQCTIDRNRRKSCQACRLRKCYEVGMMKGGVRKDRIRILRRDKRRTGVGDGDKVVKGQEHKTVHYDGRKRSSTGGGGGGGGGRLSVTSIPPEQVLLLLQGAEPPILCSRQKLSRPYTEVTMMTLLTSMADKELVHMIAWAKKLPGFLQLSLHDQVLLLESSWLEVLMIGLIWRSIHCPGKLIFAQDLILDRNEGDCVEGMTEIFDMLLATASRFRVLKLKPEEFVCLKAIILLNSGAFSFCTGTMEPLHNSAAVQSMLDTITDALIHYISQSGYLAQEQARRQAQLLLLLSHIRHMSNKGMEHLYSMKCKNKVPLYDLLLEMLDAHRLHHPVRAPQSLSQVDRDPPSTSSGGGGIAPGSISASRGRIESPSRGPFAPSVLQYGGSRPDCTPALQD

[2] = target: T2, medaka ARβ (mArβ) (Oryzias latipes, UniProt D1MV73); assay: Medaka ARβ reporter gene assay, antagonist assay; type: cell-based, Japanese medaka (Oryzias latipes); details: 11‐KT spiked at 50 nM (D); MAC = 1.0 × 10^−5 M
T2 sequence (D1MV73 1-744): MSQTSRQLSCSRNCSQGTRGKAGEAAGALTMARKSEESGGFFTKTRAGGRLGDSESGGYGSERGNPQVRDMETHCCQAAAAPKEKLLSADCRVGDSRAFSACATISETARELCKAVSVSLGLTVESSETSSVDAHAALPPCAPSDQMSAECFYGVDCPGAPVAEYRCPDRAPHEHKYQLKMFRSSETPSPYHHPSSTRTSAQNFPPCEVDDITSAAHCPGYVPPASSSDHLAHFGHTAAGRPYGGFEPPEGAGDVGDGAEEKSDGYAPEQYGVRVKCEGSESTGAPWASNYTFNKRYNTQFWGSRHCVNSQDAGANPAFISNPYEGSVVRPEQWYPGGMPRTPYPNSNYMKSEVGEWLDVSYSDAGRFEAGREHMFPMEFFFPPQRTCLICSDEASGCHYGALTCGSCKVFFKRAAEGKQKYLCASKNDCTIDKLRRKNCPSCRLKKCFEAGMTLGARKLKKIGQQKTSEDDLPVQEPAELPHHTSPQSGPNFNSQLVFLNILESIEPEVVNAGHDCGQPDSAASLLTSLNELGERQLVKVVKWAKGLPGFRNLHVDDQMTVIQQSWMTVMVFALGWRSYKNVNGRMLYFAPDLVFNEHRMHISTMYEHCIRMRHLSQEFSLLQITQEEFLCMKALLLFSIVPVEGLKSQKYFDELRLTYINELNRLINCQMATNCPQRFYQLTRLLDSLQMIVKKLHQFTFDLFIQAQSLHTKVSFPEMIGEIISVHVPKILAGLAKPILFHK

[3] = target: T1, medaka Esr1 (mEsr1); assay: Medaka Esr1 reporter gene assay, antagonist assay; type: cell-based, Japanese medaka (Oryzias latipes); details: E2 spiked at 1.0 nM (B); MAC = 1.0 × 10^−5 M
[4] = tested on: Japanese medaka (Oryzias latipes); assay: Fish Short‐Term Reproduction Assay; type: in vivo; details: for GSI Female / GSI Male / HSI Female / HSI Male / Length Female / Length Male / Weight Female / Weight Male: completion of exposure
[5] = target: T2, medaka ARβ (mArβ); assay: Medaka ARβ reporter gene assay, agonist assay; type: cell-based, Japanese medaka (Oryzias latipes); details: MAC = 1.0 × 10^−5 M
[6] = 18.8 μg/L measured, 21 d, sig. ↑ vs control
[7] = 51.8 μg/L measured, 21 d, sig. ↑ vs control
[8] = 51.8 μg/L measured, 21 d, sig. ↓ vs control
[9] = 170 μg/L measured, 21 d, sig. ↑ vs control
[10] = measured concentration 5.63 μg/L
[11] = measured concentration 18.8 μg/L
[12] = measured concentration 51.8 μg/L
[13] = measured concentration 170 μg/L

## 4‐Nonylphenol (branched) [Chemical 4NP]
[1]; mode of action in which EC50 or PC10 was obtained in RGA
  In vitro positive: Esr: Esr
[1]; read-out: Agonistic activity EC50, HEK293 cells
  EC50: 22 nM
[2]
  Antagonistic activity: NE (MAC = 1.0 × 10^−5 M)^(D)
[3]
  Antagonistic activity: NE (MAC = 1.0 × 10^−5 M)^(B)
[4]; 5.63 μg/L measured, 21 d
  Fertility rate: 97 ± 2.2%
  Hepatic VTG, female: 866 ± 277 ng/mg‐liver
  Mortality: 0.0%
  Mortality, number of dead fish: 0
  Number of fertilized eggs (per female per day): 20 ± 1.2
  Number of total eggs (per female per day): 21 ± 0.9
  SSC female (joint plates with papillary processes): 0 ± 0
  SSC male (joint plates with papillary processes): 92 ± 15
[4]; 5.63 μg/L measured, 21 d, sig. ↑ vs control
  Hepatic VTG, male: 32 ± 31 ng/mg‐liver
[4]; 18.8 μg/L measured, 21 d
  Fertility rate: 94 ± 7.7%
  Mortality: 0.0%
  Mortality, number of dead fish: 0
  Number of fertilized eggs (per female per day): 17 ± 5.4
  Number of total eggs (per female per day): 18 ± 4.9
  SSC female (joint plates with papillary processes): 0 ± 0
  SSC male (joint plates with papillary processes): 79 ± 21
[4]; [6]
  Hepatic VTG, female: 1,153 ± 300 ng/mg‐liver
  Hepatic VTG, male: 375 ± 320 ng/mg‐liver
[4]; 51.8 μg/L measured, 21 d
  Mortality: 0.0%
  Mortality, number of dead fish: 0
  SSC female (joint plates with papillary processes): 0 ± 0
  SSC male (joint plates with papillary processes): 97 ± 13
[4]; [7]
  Hepatic VTG, female: 1,348 ± 258 ng/mg‐liver
  Hepatic VTG, male: 2,431 ± 1,455 ng/mg‐liver
[4]; [8]
  Fertility rate: 61 ± 10%
  Number of total eggs (per female per day): 13 ± 3.0
[4]; 170 μg/L measured, 21 d
  Mortality: 4.2%
  Mortality, number of dead fish: 1
  SSC female (joint plates with papillary processes): 0 ± 0
  SSC male (joint plates with papillary processes): 87 ± 12
[4]; [9]
  Hepatic VTG, female: 1,212 ± 506 ng/mg‐liver
  Hepatic VTG, male: 5,009 ± 1830 ng/mg‐liver
[4]; 170 μg/L measured, 21 d, sig. ↓ vs control
  Fertility rate: 33 ± 9.7%
[4]; 21 d
  Change of hepatic VTG levels in females (in words): significant increase
  Fecundity, number of total eggs (in words): statistically significant decrease
  LOEC, elevated hepatic VTG in males: 5.63 µg/L
[4]; LOEC on VTG induction in males
  LOECmVTG: 5.63 µg/L
[4]; LOEC on reproduction (fecundity and/or fertility)
  LOECREPRO: 51.8 µg/L
[4]; lowest observed effect concentration on mortality
  LOECTOX: ND (>170) μg/L
[4]; [10]
  GSI Female: 7.8 ± 1.6%
  GSI Male: 1.02 ± 0.07%
  HSI Female: 3.4 ± 0.55%
  HSI Male: 1.7 ± 0.10%
  Length Female: 36.7 ± 1.3 mm
  Length Male: 36.8 ± 1.3 mm
  Weight Female: 535 ± 82 mg
  Weight Male: 515 ± 45 mg
[4]; [11]
  GSI Female: 8.9 ± 0.6%
  GSI Male: 1.08 ± 0.06%
  HSI Female: 4.1 ± 0.59%
  HSI Male: 1.7 ± 0.28%
  Length Female: 35.5 ± 1.2 mm
  Length Male: 37.5 ± 0.6 mm
  Weight Female: 500 ± 46 mg
  Weight Male: 552 ± 34 mg
[4]; [12]
  GSI Female: 7.7 ± 0.6%
  GSI Male: 1.15 ± 0.20%
  HSI Female: 4.2 ± 0.66%
  HSI Male: 2.0 ± 0.22%
  Length Female: 36.4 ± 0.8 mm
  Length Male: 37.6 ± 1.2 mm
  Weight Female: 537 ± 45 mg
  Weight Male: 552 ± 69 mg
[4]; [13]
  GSI Female: 7.9 ± 1.5%
  GSI Male: 1.05 ± 0.15%
  HSI Female: 3.9 ± 0.58%
  HSI Male: 2.4 ± 0.10%
  Length Female: 36.0 ± 1.6 mm
  Length Male: 38.6 ± 1.5 mm
  Weight Female: 540 ± 64 mg
  Weight Male: 602 ± 64 mg
[5]
  Agonistic activity: NE (MAC = 1.0 × 10^−5 M)
